This is an account of results in patent publication US20130197009A1, “ANTAGONIST FOR MUTANT ANDROGEN RECEPTOR” (ASTELLAS PHARMA INC., priority 2010, published 2013).

Where a chain is given by its changes, count along the chain named. pIC50: −log10 of the molar value.

The target of one experiment is T1, wild type AR (Wild) (Homo sapiens, UniProt P10275).
T1 sequence (P10275 1-920): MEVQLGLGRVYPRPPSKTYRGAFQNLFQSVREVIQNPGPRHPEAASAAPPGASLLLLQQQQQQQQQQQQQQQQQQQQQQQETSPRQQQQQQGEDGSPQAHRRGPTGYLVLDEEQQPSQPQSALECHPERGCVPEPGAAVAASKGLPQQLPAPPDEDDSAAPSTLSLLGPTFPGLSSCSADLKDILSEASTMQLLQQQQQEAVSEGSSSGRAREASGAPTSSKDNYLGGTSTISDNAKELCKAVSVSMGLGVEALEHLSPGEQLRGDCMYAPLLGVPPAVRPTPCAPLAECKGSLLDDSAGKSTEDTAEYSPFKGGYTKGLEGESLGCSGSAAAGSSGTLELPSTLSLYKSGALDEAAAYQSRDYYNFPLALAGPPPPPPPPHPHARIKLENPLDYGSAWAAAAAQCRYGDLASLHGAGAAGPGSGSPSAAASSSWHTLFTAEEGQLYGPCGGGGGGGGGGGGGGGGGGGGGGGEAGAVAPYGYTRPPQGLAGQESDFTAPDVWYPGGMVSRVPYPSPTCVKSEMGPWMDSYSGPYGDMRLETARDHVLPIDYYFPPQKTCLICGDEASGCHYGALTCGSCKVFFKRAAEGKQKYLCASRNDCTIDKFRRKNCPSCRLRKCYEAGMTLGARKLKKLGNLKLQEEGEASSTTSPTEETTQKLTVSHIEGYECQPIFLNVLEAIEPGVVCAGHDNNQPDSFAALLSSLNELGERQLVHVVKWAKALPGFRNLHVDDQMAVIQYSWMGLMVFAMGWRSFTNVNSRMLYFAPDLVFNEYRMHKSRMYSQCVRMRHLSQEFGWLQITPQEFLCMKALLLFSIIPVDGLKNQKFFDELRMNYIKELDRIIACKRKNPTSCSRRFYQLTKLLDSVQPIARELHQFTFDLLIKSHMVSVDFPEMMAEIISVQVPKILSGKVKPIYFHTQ
Description: Inhibitory action against transcriptional activation of AR (luciferase reporter, CHO-K1 cells, DHT 0.3 nM). (In a reporter assay the amount or activity of a reporter protein is the signal.)

The next experiment concerns the target T2, human T877A mutant AR (Homo sapiens, UniProt P10275, T878A).
T2 construct: expressed in transfected cells; host or cells: CHO-K1
T2 sequence (P10275 1-920 T878A): T1 sequence (P10275 1-920) with T878A
Description: Inhibitory action against transcriptional activation of mutant AR (luciferase reporter, CHO-K1 cells, DHT 0.3 nM). Format: cell-based. As to conditions: CHO-K1 cells stably expressing T877A mutant AR, with DHT 0.3 nM, >1000 nM means no inhibitory action observed, read-out: IC50, inhibition of transcriptional activation, T877A. As to the method: Subsequently, the cells were incubated overnight again at 37° C. and then treated with a luciferase assay system.
An IC50 value was calculated by Sigmoid-Emax model nonlinear regression analysis.
The inhibitory action of the respective test compounds against the receptor was calculated as an IC50 value, and the values are described in the following table. In addition, “-” means that the test was not performed.

A word on the pIC50: it is the IC50 on a negative log10 scale, so that one unit is a factor of ten.

On wild type AR (Wild), `COc1cc(N2C[C@@H](C)N(C(=O)Nc3cc(C)nc(C)n3)C[C@@H]2C)ccc1C#N` [Ex 7, (2R,5S)-4-(4-cyano-3-methoxyphenyl)-N-(2,6-dimethylpyrimidin-4-yl)-2,5-dimethylpiperazine-1-carboxamide] gave a negative logarithm of the IC50 (pIC50) of 7.12. The molecule `C[C@@H]1CN(c2ccc(C#N)c(Cl)c2)[C@@H](C)CN1C(=O)Nc1cnc(N2CCCCC2)nc1` [Ex 8, (2R,5S)-4-(3-chloro-4-cyanophenyl)-2,5-dimethyl-N-[2-(piperidin-1-yl)pyrimidin-5-yl]piperazine-1-carboxamide] had a pIC50 against wild type AR (Wild) of 7.77. Consider `COc1ncc(NC(=O)N2C[C@H](C)N(c3ccc(C#N)c(Br)c3)C[C@H]2C)cn1` [Ex 11, (2R,5S)-4-(3-bromo-4-cyanophenyl)-N-(2-methoxypyrimidin-5-yl)-2,5-dimethylpiperazine-1-carboxamide], for which the pIC50 is 7.64 on human T877A mutant AR and 7.59 against wild type AR (Wild). `Cc1cc(NC(=O)N2C[C@H](C)N(c3ccc(C#N)c(Cl)c3)C[C@H]2C)cc(Cl)n1` [Ex 16, (2R,5S)-4-(3-chloro-4-cyanophenyl)-N-(2-chloro-6-methylpyridin-4-yl)-2,5-dimethylpiperazine-1-carboxamide]: the pIC50 on human T877A mutant AR was 7.62; on wild type AR (Wild) it was 7.35. Taken in the same sequence, the figures for `COc1cc(NC(=O)N2C[C@H](C)N(c3ccc(C#N)c(Cl)c3)C[C@H]2C)cc(C)n1` [Ex 18, (2R,5S)-4-(3-chloro-4-cyanophenyl)-N-(2-methoxy-6-methylpyridin-4-yl)-2,5-dimethylpiperazine-1-carboxamide] were 7.82 and 8.00. Regarding `COc1cc(NC(=O)N2C[C@H](C)N(c3ccc(C#N)c(Br)c3)C[C@H]2C)cc(C)n1` [Ex 19, (2R,5S)-4-(3-bromo-4-cyanophenyl)-N-(2-methoxy-6-methylpyridin-4-yl)-2,5-dimethylpiperazine-1-carboxamide], the pIC50 is 7.72 at human T877A mutant AR and 7.96 against wild type AR (Wild).

Turning to `CC(C)Oc1cc(N2C[C@@H](C)N(C(=O)Nc3cnc(C4CC4)nc3)C[C@@H]2C)ccc1C#N` [Ref 1-1, reference compound], the pIC50 is 6.46 on human T877A mutant AR and 6.85 against wild type AR (Wild). Consider `COc1cc(N2C[C@@H](C)N(C(=O)Nc3nc(C)cc(O)n3)C[C@@H]2C)ccc1C#N` [Ref 1-2, reference compound], for which the results for the pIC50 at human T877A mutant AR and against wild type AR (Wild) were 7.05 and 7.24, respectively. As to `C[C@@H]1CN(c2ccc(C#N)c(Cl)c2)[C@@H](C)CN1C(=O)Nc1cnc2ccccc2n1` [Ref 1-3, (2R,5S)-4-(3-chloro-4-cyanophenyl)-2,5-dimethyl-N-(quinoxalin-2-yl)piperazine-1-carboxamide, reference compound], the values for the pIC50 on human T877A mutant AR and at wild type AR (Wild) were 6.17 and 7.29, respectively.
